Molecular target: T1, GPR23 (Homo sapiens, UniProt Q99677)
T1 construct: gene LPAR4; native receptor in U87 glioma cell membranes; control vs GPR23-siRNA silenced
Test: [3H]-guanine radioligand saturation binding on U87 membranes; Bmax falls on GPR23 silencing

T1 sequence (Q99677 whole entry): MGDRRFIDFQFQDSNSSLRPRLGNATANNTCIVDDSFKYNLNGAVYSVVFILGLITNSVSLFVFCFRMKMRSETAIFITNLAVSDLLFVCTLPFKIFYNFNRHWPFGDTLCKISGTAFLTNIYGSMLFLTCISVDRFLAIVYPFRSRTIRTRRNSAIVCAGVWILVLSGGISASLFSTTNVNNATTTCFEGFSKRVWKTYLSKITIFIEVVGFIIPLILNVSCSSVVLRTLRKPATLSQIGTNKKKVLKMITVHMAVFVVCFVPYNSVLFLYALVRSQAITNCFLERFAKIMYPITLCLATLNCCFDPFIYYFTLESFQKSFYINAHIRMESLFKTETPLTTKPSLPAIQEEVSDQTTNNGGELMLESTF

`Nc1nc2nc[nH]c2c(=O)[nH]1` [GUA, guanine] showed a Kd of 29.4 ± 4.07 nM.
